In US11434205B2, “Substituted imidazole carboxylate derivatives and the use thereof” (priority 2018, dated 2022):
Where two headings read alike, the source gives them in different places.

Legend:
rats [1] = assay: Loss of righting reflexes (LORR) assay in rats, ED50 by up and down method; format: in vivo, rat; conditions: Rattus norvegicus, tail vein, class symbols
Method: The Anesthetic Activity of the Compounds was Assessed in Rats Using a Loss of Righting Reflexes (LORR) Assay
(§1) Adult male Sprague-Dawley rats (250-300 g) were selected for the experiment. […] The anesthesia effects of the compounds were assessed in rats using a LORR assay and a period >30 s was considered as an indicator of general anesthesia. Then the up and down method was used to determine 50% effective dose (ED50). The drugs were administered through the tail vein of rats in a volume of 0.6 mL and at a rate of 0.1 mL/s.

rats [2] = assay: Pharmacological characteristics at equivalent doses (2×ED50) in rats; conditions: 2×ED50, tail vein
Method: Comparison of Pharmacological Characteristics of the Compounds at Equivalent Doses (2×ED50) in Rats
Adult male Sprague-Dawley rats (250-300 g) were selected for the experiment (n=8). […] The drugs were administered at a dose twice their ED50 through the tail vein of rats in a volume of 0.6 mL and at a rate of 0.1 mL/s. In addition, the time of LORR was recorded as the onset time of anesthesia. […] Furthermore, the duration of the pharmacological effects is sufficient to meet the time requirements for rapid induction of general anesthesia and for diagnostic examinations, some short invasive clinical examinations, or operations.

rats [3] = test system: rats
Method: as §1

rats [4] = test system: rats; remark: listed apart in the source
Method: Pharmacological Effects of the Compounds on Continuous Infusion in Rats
Adult male Sprague-Dawley rats with body weight ranging from 250 to 300 gm were selected for continuous infusion test. […] Time to recovery of righting reflex from stopping infusion, and time to fully awake from stopping infusion were recorded.

[5] = test system: secretion of corticosterone, H295R cell line; assay: cells; format: cell-based; conditions: for EC50: read-out: EC50 (Corticosterone)
Method: (§2) The Effects of the Compounds on Adrenocortical Function In Vitro Test
(§3) Then secretion of the cortisol and corticosterone in the supernatant, was measured using HPLC-MS/MS method to determine whether the compounds of the present invention had adrenotoxic potential.

[6] = test system: secretion of cortisol, H295R cell line; assay: cells; format: cell-based; conditions: for EC50: read-out: EC50 (Cortisol)
Method: as §2, §3

rats [7] = format: in vivo, rat; conditions: rats of the MAP/HR figures, 2×ED50, tail vein; same value in min
Method: The Effects of the Compounds on the Circulatory Function were Measured in Rats Using a Small Animal Implanted Physiological Signal Telemetry System
The anesthetic activity of the compounds was assessed in rats using a LORR assay and the up and down method was used to determine ED50. […] A small animal implantable physiological signal telemetry system from DSI (Data Science International, Inc.) was used to measure the changes in heart rate (HR) and blood pressure in rats during 30 min after administration. Then mean arterial pressure (MAP) and HR were used as representative indicators to determine hemodynamic stability of the compounds of the present invention in rats.
A small animal implantable physiological signal telemetry system from DSI (Data Science International, Inc.) including implants (RATHD-521, DSI, United States), receiver boards (RPC-1, DSI, United States), signal conversion devices (DEM, DSI, USA), perfusion glue (DSI, USA), fibrin membrane (DSI, USA), etc.
First, animal models were established. A left ventricular catheter, an abdominal aortic catheter and ECG wires were placed into rats. At least one week after surgery, data were recorded.
Administration procedure: rats were put into a restraint device with a 20 G indwelling catheter placed into a lateral tail vein. After administration of 0.2 mL heparin, a pre-filled extension tube was attached and taped to the tail vein to secure the extension tube. Then the rats were removed from the restraint device to a cage before placing them together on the signal receiver. […] Finally, the pharmacological effects, adverse reactions, and behavioural manifestations of the rats were observed and recorded
Data collection: After setting the data collection parameters on the software, the power of the implant was turned on to start data collection. In this experiment, data recording frequency was set to 15 s. Data collection was continuously recorded for 30 min before and after administration of the drugs in rats. After data acquisition, the test was stopped.

rats [8] = format: in vivo, rat; conditions: rats of the MAP/HR figures, 2×ED50, tail vein
[9] = emulsion, continuous infusion at 2×MIR
[10] = continuous tail vein infusion at 2×MIR, LORR maintained 1 hour, Table D4
[11] = H295R cell line, 0.1-10000 nM, HPLC-MS/MS, Table D3
[12] = continuous tail vein infusion at 2×MIR, LORR maintained 1 hour, Table E4
[13] = H295R cell line, 0.1-10000 nM, HPLC-MS/MS, Table E3

Compound	EC50 ([5]; Homo sapiens, NCI-H295R)	EC50 ([6]; Homo sapiens, NCI-H295R)	recovery time of the test animals' righting reflex (rats [7])	recovery time of the test animals' righting reflex (rats [8])	Corticosterone as an indicator to determine the presence of inhibition [5, 13]	Cortisol as an indicator to determine the presence of inhibition [6, 13]	also measured
C[C@H](c1ccccc1)n1cncc1C(=O)OCC1(C)CSC1 [Compound B8]	–	–	–	–	–	–	ED50 (rats [1]): 0.5 to 1 mg/kg; Righting reflex duration (rats [2]): 5.00 ± 1.25 min; Adverse reactions: Red urine (incidence) (rats [2]; DMSO solution (DMSO alone 10/10)): Red urine (8/8); Onset time (rats [2]; time of LORR): 0.13 ± 0.05 min; Approximate therapeutic index (rats [3]): >10; Minimal lethal dose (rats [3]): >10 mg/kg
CCCC1(COC(=O)c2cncn2[C@H](C)c2ccccc2)COC1 [Compound B10]	> 1 µM	> 1 µM	1.35 min	81 s	–	–	Recovery time after stopping infusion (rats [4]; after 1 hour infusion at 2×MIR): 9 to 12 min; Adverse reactions: Tremor (incidence) (rats [4]; continuous infusion 2×MIR): Tremor (3/6); Onset time (rats [4]; [9]): 3 to 4 min; Corticosterone as an indicator to determine the presence of inhibition ([5]; H295R, Table B3): 0; Cortisol as an indicator to determine the presence of inhibition ([6]; H295R, Table B3): 0
CCC1(OC(=O)c2cncn2[C@H](C)c2ccccc2)COC1 [Compound B18]	> 1 µM	> 1 µM	4.65 min	279 s	–	–	Recovery time after stopping infusion (rats [4]; after 1 hour infusion at 2×MIR): 15 to 18 min; Adverse reactions: Tremor (incidence) (rats [4]; continuous infusion 2×MIR): Tremor (4/6); Onset time (rats [4]; [9]): 3 to 4 min; Corticosterone as an indicator to determine the presence of inhibition ([5]; H295R, Table B3): 0; Cortisol as an indicator to determine the presence of inhibition ([6]; H295R, Table B3): 0
C[C@H](c1ccccc1)n1cncc1C(=O)SCC1COC1 [Compound B29]	> 10 µM	> 10 µM	1.87 min	112 s	–	–	Recovery time after stopping infusion (rats [4]; after 1 hour infusion at 2×MIR): 8 to 10 min; Types and incidence of adverse reactions (rats [4]; continuous infusion 2×MIR, in words): No; Onset time (rats [4]; [9]): 2 to 3 min; Corticosterone as an indicator to determine the presence of inhibition ([5]; H295R, Table B3): 0; Cortisol as an indicator to determine the presence of inhibition ([6]; H295R, Table B3): 0
C[C@H](c1ccccc1)n1cncc1C(=O)OC(C)(C)C#CC#CC(C)(C)O [Compound D38]	> 10 µM	> 10 µM	3.22 min	193 s	–	–	Onset time (rats [4]; [10]): 3 to 4 min; Recovery time after stopping infusion (rats [4]; [10]): 12 to 14 min; Types and incidence of adverse reactions (rats [4]; [10]): Tremor (5/6); Corticosterone as an indicator to determine the presence of inhibition [5, 11]: 0; Cortisol as an indicator to determine the presence of inhibition [6, 11]: 0
C[C@H](c1ccccc1)n1cnc(F)c1C(=O)OC(C)(C)C [Compound E12]	> 10 µM	> 10 µM	3.57 min	214 s	0	0	Onset time (rats [4]; [12]): 2 to 3 min; Recovery time after stopping infusion (rats [4]; [12]): 11 to 23 min; Types and incidence of adverse reactions (rats [4]; [12]): Tremor (2/6)
CC(OC(=O)c1c(F)ncn1C(C)c1ccccc1)=C1CCCC1=O (stereo not drawn) [Compound E31]	–	–	1.75 min	105 s	0	0	Onset time (rats [4]; [12]): 3 to 4 min; Recovery time after stopping infusion (rats [4]; [12]): 8 to 11 min; Types and incidence of adverse reactions (rats [4]; [12]): Tremor (3/6); EC50 [5, 13]: > 10 µM; EC50 [6, 13]: > 10 µM
C/C(OC(=O)c1c(Cl)nc(Cl)n1[C@H](C)c1ccccc1)=C1\CCCC1=O [Compound E146]	> 10 µM	> 10 µM	3.35 min	201 s	0	0	–
COCC1(COC(=O)c2c(C(F)(F)F)ncn2[C@H](C)c2ccccc2)CCC1 [Compound E157]	> 10 µM	> 10 µM	3.03 min	182 s	0	0	–
CC(=O)C(C)(C)OC(=O)c1c(C(F)(F)F)ncn1[C@H](C)c1ccccc1 [Compound E160]	> 10 µM	> 10 µM	1.08 min	65 s	0	0	–
CC#CCOC(=O)c1c(C(F)(F)F)ncn1[C@H](C)c1ccccc1 [Compound E161]	> 10 µM	> 10 µM	2.33 min	140 s	0	0	–
C=C=CC1(OC(=O)c2c(C(F)(F)F)ncn2[C@H](C)c2ccccc2)COC1 [Compound E163]	–	–	1.58 min	95 s	0	0	EC50 [5, 13]: > 10 µM; EC50 [6, 13]: > 10 µM
CCOC(=O)c1c(C(F)(F)F)ncn1[C@H](C)c1ccccc1 [Compound E164]	> 10 µM	> 10 µM	1.28 min	77 s	0	0	–
